Assays:
[1] = Microsomal assay: stability in human liver microsomes; format: in vitro ADME; settings: human, liver microsomes, pH 7.4, human liver microsomes, repeated assay (Table 3); read-out: t1/2 (min) Avg ± SD (n = 3)
Experimental: Microsomal Assay. Human liver microsomes (20 mg/mL, pool of 50 individuals) were obtained from Xenotech LLC (Lenexa, Kans.). The incubation mixtures are prepared as follows. Stock solutions (10 mM) solutions of test Compounds 103, 106, 122 and of atazanavir were prepared in DMSO. The 10 mM stock solutions were diluted to 1 mM in acetonitrile (ACN). […] The microsome-test compound mixtures were added to wells of a 2 mL 96-well deep well polypropylene plate in triplicate. The plate was warmed to 37° C. before initiating the reactions by addition of prewarmed NADPH in 0.1 M potassium phosphate buffer, pH 7.4, containing 3 mM MgCl2. The final reaction mixture composition contained: • Liver Microsomes 0.5 mg/mL • NADPH 2 mM • Potassium Phosphate, pH 7.4 100 mM • Magnesium Chloride 3 mM • Test Compound 1.0 μM. The reaction mixtures were incubated at 37° C. and 50 μL aliquots were removed at 0, 3, 7, 12, 20, and 30 minutes and added to shallow-well 96-well plates which contained 50 μL of ice-cold ACN with internal standard to stop the reactions. The plates were stored at −20° C. for 30 minutes, after which 100 μL of water was added to the wells of the plate before centrifugation to pellet precipitated proteins. Supernatants were transferred to another 96-well plate and analyzed for amounts of parent remaining by LC-MS/MS using an Applied Biosystems API 4000 mass spectrometer. […] Data analysis was performed using Microsoft Excel Software. […] The results are shown in FIGS. 2 and 3 and in Table 3, below: […]

[2] = Chimp pharmacokinetics Run A, IV or PO co-dosing of atazanavir and Compounds 114, 120, 122; format: in vivo, chimpanzee; settings: for concentration at 24 h: concentration detected intact in urine
Experimental: Chimp Pharmacokineties. Run A: A 4 mg/mL solution of atazanavir and each of Compounds 114, 120 and 122 were prepared in 10% DMI (dimethyl isosorbide), 15% EtOH, 35% PG in D5W. Specifically, for each compound, 240 mgs of compound was dissolved in a solution composed of 6 mL of DMI, 9 mL of EtOH and 21 mL PG. Once the compound was fully dissolved, 24 mL of D5W was added and the solution mixed.
Fifty-five mL of each drug solution is then combined and the mixture was sterile filtered using a 0.2 μm filter. This produced 220 mL of a 1:1:1:1 mixture atazanavir:Compound 114:Compound 120:Compound 122. The final concentration of each drug in the solution was 1 mg/mL. Each animal received 50 mL of this solution through either IV or PO routes.
(§1) Four chimps (two male and two female) were used in this study and were fasted overnight prior to administration of the compound solution. Animals were sedated with ketamine and/or telazol prior to dosing. Intravenous dosing was achieved by IV infusion over 30 minutes.
(§2) Approximately 4.5 mL of blood was collected into vacutainer tubes with sodium heparin as an anticoagulant at 0 (preinfusion), 15 min., 29.5 min (immediately before the end of the infusion), and then at 6, 15, 30, and 45 minutes, and 1, 2, 4, 6, 8, 10, 12, 24 hours after the infusion is stopped. A similar procedure was used to collect blood after oral dosing with samples taken at 0 (predose), 15, and 30 minutes, and at 1, 1.5, 2, 4, 6, 8, 10, 12, 24 hours postdose. Following sample collection, the vacutainer tubes were rocked by hand several times to insure adequate mixing. Blood samples were placed immediately on wet ice and centrifuged within 1 hour from time of collection. Following centrifugation, the resulting plasma was stored frozen at −70° C. until analysis. The results are summarized in FIGS. 4 and 5 and tables 6 and 7.

HIV-1RF = experiment: HIV anti-viral activity in CEM-SS cells infected with HIV-1 (XTT); format: cell-based; settings: for EC50: Human immunodeficiency virus 1, CEM-SS
Experimental: The HIV antiviral activity of compound of the present invention was tested in CEM-SS cells infected with HIV-1. CEM-SS cells were passaged in T-75 flasks in RPMI 1640 medium supplemented with 10% heat inactivated fetal bovine serum, 2 mmol/L L-glutamine, 100 U/mL penicillin and 100 flg/mL streptomycin prior to use in the antiviral assay. On the day preceding the assay, the cells were split 1:2 to assure they were in an exponential growth phase at the time of infection. Total cell and viability quantification was performed using a hemocytometer and Trypan Blue dye exclusion. Cell viability was greater than 95% for the cells to be utilized in the assay. The cells were resuspended at 5×10^4 cells per mL in tissue culture medium and added to the drug-containing microtiter plates in a volume of 50 μL.
The virus used for the assay was the lymphocyte-tropic virus strain HIV-IRF. The virus was obtained from the NIH AIDS Research and Reference Reagent Program and stock virus pools were produced in CEM-SS cells. A pre-titered aliquot of virus was removed from the freezer (−80° C.) and allowed to thaw slowly to room temperature in a biological safety cabinet. Virus was resuspended and diluted into tissue culture medium such that the amount of virus added to each well in a volume of 50 μL was the amount determined to yield 85 to 95% cell killing at 6 days post-infection.
Each plate contains cell control wells (cells only), virus control wells (cells plus virus), compound toxicity wells (cells plus compound only), compound colorimetric control wells (compound only) as well as experimental wells (compound plus cells plus virus). Samples were tested in triplicate with eleven half-log dilutions per compound starting at 0.1 μM of compound. Compounds 104, 120 and 122 were tested, as was atazanavir and AZT. […]
Following incubation at 37° C. in a 5% CO2 incubator, the test plates were stained with the tetrazolium dye XTT (2,3-bis(2-methoxy-4-nitro-5sulfophenyl)-5-[(phenylamino)carbonyl]-2H-tetrazolium hydroxide). XTT-tetrazolium was metabolized by the mitochondrial enzymes of metabolically active cells to a soluble formazan product, allowing rapid quantitative analysis of the inhibition of HIV induced cell killing by anti-HIV test substances. XTT solution was prepared daily as a stock of 1 mg/mL in RPMI 1640. Phenazine methosulfate (PMS) solution was prepared at 0.15 mg/mL in PBS and stored in the dark at −20° C. XTT/PMS stock was prepared immediately before use by adding 40 μL of PMS per mL of XTT solution. Fifty microliters of XTT/PMS was added to each well of the plate and the plate was reincubated for 4 hours at 37° C. Plates were sealed with adhesive plate sealers and shaken gently or inverted several times to mix the soluble formazan product and the plate was read spectrophotometrically at 450/650 nm with a Molecular Devices Vmax plate reader.
Raw data was collected from the Softmax Pro 4.6 software and imported into a Microsoft Excel 2003 spreadsheet for analysis by linear curve fit calculations.

in vivo = settings: chimpanzee, po
Experimental: as §1, §2
Run B: Same as Run A, except the dose was 150 mg orally of each of atazanavir and compounds 114 and 120, and the vehicle was 10 percent ethanol, 40 percent polypropylglycol in 2.5 percent citric acid.

With `[2H]C([2H])([2H])OC(=O)N[C@H](C(=O)NN(Cc1ccc(-c2ccccn2)cc1)C[C@H](O)[C@H](Cc1ccccc1)NC(=O)[C@@H](NC(=O)OC([2H])([2H])[2H])C(C([2H])([2H])[2H])(C([2H])([2H])[2H])C([2H])([2H])[2H])C(C)(C)C` [Compound 120, 1,14-Di(methyl-d3)(3S,8S,9S,125)-3-(1,1-dimethylethyl)-12-[(1,1-dimethylethyl)-d9]-8-hydroxy-4,11-dioxo-9-(phenlymethyl)-6-[[4-(2-pyridinyl)phenyl]methyl]-2,5,6,10,13-pentaazatetradecanedioate] the half-life at 1 μM [1] was 26.9 ± 1.4 min, the “Ratio of urine concentration, compound:Atazanavir” value (“Ratio of urine concentration” below) ([2]; chimp A242E, PO, 24 hours, Run A) was 2.16 and the “Ratio of urine concentration” value ([2]; chimp A336C, IV, 24 hours, Run A) was 1.74. For the same compound, the “Ratio of urine concentration” value ([2]; chimpanzee, in vivo, iv, 24 h) was 1.52, the “concentration detected intact in urine” value ([2]; chimpanzee, in vivo, iv, 24 h) was 3110 ng/mL and the concentration at 24 h ([2]; chimpanzee, in vivo, iv) was 3030 ng/mL. The “Ratio of urine concentration” value ([2]; chimpanzee, in vivo, po, 24 h) was 2.15, the “concentration detected intact in urine” value ([2]; chimpanzee, in vivo, po, 24 h) was 1110 ng/mL and the concentration at 24 h ([2]; chimpanzee, in vivo, po) was 1230 ng/mL. The “fold less potent in the presence of HSA than in cell culture medium alone” value (HIV-1RF; 10 mg/mL HSA versus cell culture medium) was “two- to greater than three-fold less potent”, the EC50 (HIV-1RF; +0.5 mg/mL AAGP) was 3 nM and the EC50 (HIV-1RF; +10 mg/mL HAS) was 1 nM. The EC50 (HIV-1RF; +AAGP + HSA) was 4 nM, the EC50 (HIV-1RF; No Serum Protein Added (cell culture medium)) was 0.5 nM and the “concentration detected intact in urine” value (in vivo; 24 h) was 5030 ng/mL. For the same compound, the concentration at 24 h (in vivo; concentration detected intact in urine) was 2930 ng/mL.

— patent US8258309B2, “Azapeptide derivatives” (priority 2007, dated 2012)
